CCCCCCCCC(=O)NCc1ccc(O)c(OC)c1
solubility (mole fraction)
Conditions | in DMSO | in MTBE | in acetone | in acetonitrile | in ethyl acetate | in methanol | in n-hexane | in water
293.2 K | 0.257 | 0.019 | 0.161 | 0.0118 | 0.0625 | 0.219 | 4.06e-05 | 1.64e-05
298.2 K | 0.315 | 0.0472 | 0.229 | 0.0357 | 0.117 | 0.28 | 7e-05 | 1.93e-05
303.2 K | 0.403 | 0.114 | 0.299 | 0.0943 | 0.199 | 0.349 | 0.000119 | 2.32e-05
308.2 K | 0.495 | 0.27 | 0.39 | 0.232 | 0.309 | 0.428 | 0.000189 | 2.71e-05
313.2 K | 0.595 | 0.427 | 0.499 | 0.38 | 0.421 | 0.489 | 0.000296 | 3.24e-05
318.2 K | 0.671 | 0.569 | 0.6 | 0.553 | 0.566 | 0.583 | 0.000457 | 3.7e-05
323.2 K | 0.763 | 0.729 | 0.714 | 0.714 | 0.712 | 0.736 | 0.000595 | 4.27e-05
